Experimental data taken from US7053175B1, “Synthetic peptides useful in biological assays for detecting infections caused by group O HIV-1 viruses” (Bio-Rad Pasteur, priority 1997, dated 2006).
No end group written: not given here.

Tested on: sera from patients infected with group O HIV-1 retroviruses
Assay: Immunoenzymatic test: Test No. 1 (immunoreactivity of peptides coated on microplates)
Type: binding, human
Set-up: key to ABSORBANCE: >: signal greater than the reading capacity of the spectrophotometer
Conditions: for ABSORBANCE: cyclized peptide 2 μg/ml
Protocol: The sera used ESS, DUR, VAU and HAD are sera from French patients infected with group O HIV-1 retroviruses. The other serum samples from patients infected with group O HIV-1 retroviruses were obtained by the Yaoundé Pasteur Centre in Cameroon and were serotyped group O according to the serological algorithm described in AIDS (1977), 11, pp 445-453.
The HIV-negative sera (n=48) were obtained from healthy volunteers.
The synthetic peptides used were dissolved in water at a concentration of 1 mg/ml (stock solution). For the solid phase sensitization step (coating), 110 μl of a solution at 2 μg/ml of each peptide (obtained by diluting the stock solution with 0.1 M carbonate buffer solution) were added to each well of the microtitre plates Microtiter™ (NUNC). After incubating overnight at room temperature, the microplates were first washed with a Tris-NaCl buffer solution pH 7.4 containing 0.1% of Tween® 20 and 0.001% sodium merthiolate, and then saturated with a PBS solution containing 0.5% of Régilait™ (dried skimmed milk). After aspirating the saturating solution, the plates were heated for 10 min at 50° C.
The serum samples were diluted 1/5 with a skimmed milk solution (citrate buffer supplemented with 0.01% of phenol red, 0.25% of chloroform and 0.25% of Kathon®), deposited in the wells of the plates and incubated for 30 min at 40° C.
After washing with a Tris-NaCl buffer solution pH 7.4 containing 0.1% of Tween® 20 and 0.001% of sodium merthiolate, 100 μl of a solution of conjugate consisting of horseradish peroxidase-labelled anti-human IgG and IgM goat antibodies, containing as preservative 0.01% of sodium merthiolate, in solution in a citrate buffer solution supplemented with 30% glycerol and 25% normal foetal calf serum, were added to each plate well and then the plates were incubated for 30 min at 40° C.
After washing with a Tris-NaCl buffer solution pH 7.4 containing 0.1% of Tween® 20 and 0.001% of sodium merthiolate, the colour was developed by adding, to each well, 100 μl of O-phenylenediamine in solution in hydrogen peroxide. The microplates were then incubated for 30 min at room temperature and in the dark. The coloured reaction was then stopped by addition of 100 μl of 4N sulphuric acid. The absorbance (A) was determined at 490 and 620 nm.
The relative absorbance (A490-A620) read in each well is proportional to the immunoreactivity of each peptide. It indicates the ability of each peptide to react with the biological sample with which the test is carried out. The cut-off value was determined as being an absorbance equal to 0.15. It corresponds to the mean of the negative values (n=48) plus 12 standard deviations.
The reactivity of the peptides of the invention (peptide No. 3 (4B), peptide No. 2 (3B) and peptide No. 1 (2B), all in cyclized form), was compared with that of two synthetic peptides having, as sequence, a portion of the natural sequence of the envelope (env) of the VAU isolate (group O HIV-1 retrovirus) and comprising an immunodominant epitope of gp41.
For the study, these peptides were used in cyclized form.

Sequence: RLLALETFIEENELLNLWGCKNRAICYTSVKWNKT (cysteine pairing not given here) [VAU 35 AA, reference compound]
- ABSORBANCE (serum 134): >
- ABSORBANCE (serum 402): >
- ABSORBANCE (serum 625): 2.585
- ABSORBANCE (serum 1062): >
- ABSORBANCE (serum 1105*): 0.129
- ABSORBANCE (serum 1581): 0.894
- ABSORBANCE (serum 1702): >
- ABSORBANCE (serum 1754): 1.948
- ABSORBANCE (serum 2294): >
- ABSORBANCE (serum 2312): >
- ABSORBANCE (serum 2313): >
- ABSORBANCE (serum 2352): >
- ABSORBANCE (serum 2551): >
- ABSORBANCE (serum 2700): >
- ABSORBANCE (serum 3016): >
- ABSORBANCE (serum 3136): >
- ABSORBANCE (serum 3235): >
- ABSORBANCE (serum 3236): >
- ABSORBANCE (serum 3302): >
- ABSORBANCE (serum 3482): >
- ABSORBANCE (serum 3529): >
- ABSORBANCE (serum 3600*): >
- ABSORBANCE (serum 3627*): >
- ABSORBANCE (serum 3637): 1.647
- ABSORBANCE (serum 3653): 1.322
- ABSORBANCE (serum 3771): >
- ABSORBANCE (serum 3884*): >
- ABSORBANCE (serum 3891): >
- ABSORBANCE (serum 3935): 0.227
- ABSORBANCE (serum 3945): >
- ABSORBANCE (serum 4021*): 1.957
- ABSORBANCE (serum 4364): >
- ABSORBANCE (serum 4434): >
- ABSORBANCE (serum 4477): >
- ABSORBANCE (serum 4489*): 1.718
- ABSORBANCE (serum 5149*): >
- ABSORBANCE (serum 5164): >
- ABSORBANCE (serum 5210): >
- ABSORBANCE (serum 5270*): >
- ABSORBANCE (serum 5373): 0.856
- ABSORBANCE (serum 5453): 1.482
- ABSORBANCE (serum 5766*): >
- ABSORBANCE (serum 5931): 2.225
- ABSORBANCE (serum 5969*): >
- ABSORBANCE (serum 6111): >
- ABSORBANCE (serum 6165): >
- ABSORBANCE (serum 6198*): >
- ABSORBANCE (serum 6295*): >
- ABSORBANCE (serum 6487): 2.891
- ABSORBANCE (serum 6512*): 0.174
- ABSORBANCE (serum 6627): >
- ABSORBANCE (serum 6689*): >
- ABSORBANCE (serum 6697): >
- ABSORBANCE (serum 6782): 2.214
- ABSORBANCE (serum 6891): 0.496
- ABSORBANCE (serum 6976*): >
- ABSORBANCE (serum 6998): >
- ABSORBANCE (serum 7007): 2.151
- ABSORBANCE (serum 7120): >
- ABSORBANCE (serum 7212): >
- ABSORBANCE (serum 7258*): >
- ABSORBANCE (serum 7297*): >
- ABSORBANCE (serum 7439): >
- ABSORBANCE (serum 7443): 0.574
- ABSORBANCE (serum DUR*): 0.872
- ABSORBANCE (serum ESS*): >
- ABSORBANCE (serum HAD): 0.871
- ABSORBANCE (serum VAU*): >

Sequence: LLSSWGCKGRLVCYTSVQWNET [PEPTIDE No. 3 (4B)]
- ABSORBANCE (serum 134): >
- ABSORBANCE (serum 402): >
- ABSORBANCE (serum 625): >
- ABSORBANCE (serum 1062): >
- ABSORBANCE (serum 1105*): 1.421
- ABSORBANCE (serum 1581): >
- ABSORBANCE (serum 1702): >
- ABSORBANCE (serum 1754): >
- ABSORBANCE (serum 2294): >
- ABSORBANCE (serum 2312): >
- ABSORBANCE (serum 2313): >
- ABSORBANCE (serum 2352): >
- ABSORBANCE (serum 2551): >
- ABSORBANCE (serum 2700): >
- ABSORBANCE (serum 3016): >
- ABSORBANCE (serum 3136): >
- ABSORBANCE (serum 3235): >
- ABSORBANCE (serum 3236): >
- ABSORBANCE (serum 3302): >
- ABSORBANCE (serum 3482): 2.402
- ABSORBANCE (serum 3529): >
- ABSORBANCE (serum 3600*): >
- ABSORBANCE (serum 3627*): >
- ABSORBANCE (serum 3637): >
- ABSORBANCE (serum 3653): 1.352
- ABSORBANCE (serum 3771): >
- ABSORBANCE (serum 3884*): >
- ABSORBANCE (serum 3891): >
- ABSORBANCE (serum 3935): >
- ABSORBANCE (serum 3945): >
- ABSORBANCE (serum 4021*): 0.430
- ABSORBANCE (serum 4288*): >
- ABSORBANCE (serum 4364): >
- ABSORBANCE (serum 4434): >
- ABSORBANCE (serum 4477): >
- ABSORBANCE (serum 4489*): >
- ABSORBANCE (serum 5149*): >
- ABSORBANCE (serum 5164): >
- ABSORBANCE (serum 5210): >
- ABSORBANCE (serum 5270*): >
- ABSORBANCE (serum 5373): >
- ABSORBANCE (serum 5453): 0.555
- ABSORBANCE (serum 5766*): >
- ABSORBANCE (serum 5931): >
- ABSORBANCE (serum 5969*): >
- ABSORBANCE (serum 6111): >
- ABSORBANCE (serum 6165): >
- ABSORBANCE (serum 6198*): >
- ABSORBANCE (serum 6295*): 1.718
- ABSORBANCE (serum 6487): >
- ABSORBANCE (serum 6512*): 0.746
- ABSORBANCE (serum 6627): >
- ABSORBANCE (serum 6689*): 0.710
- ABSORBANCE (serum 6697): >
- ABSORBANCE (serum 6782): >
- ABSORBANCE (serum 6891): >
- ABSORBANCE (serum 6976*): >
- ABSORBANCE (serum 6998): >
- ABSORBANCE (serum 7007): 2.136
- ABSORBANCE (serum 7120): >
- ABSORBANCE (serum 7212): >
- ABSORBANCE (serum 7258*): >
- ABSORBANCE (serum 7297*): >
- ABSORBANCE (serum 7439): >
- ABSORBANCE (serum 7443): >
- ABSORBANCE (serum DUR*): >
- ABSORBANCE (serum ESS*): >**
- ABSORBANCE (serum HAD): >
- ABSORBANCE (serum VAU*): 1.342
- immunoreactivity compared with the other peptides (in words) (summary of Table IV): best performance
